In patent EP0156508A1, “Antifungal aerosol solution” (ORTHO PHARMACEUTICAL CORPORATION, priority 1984, dated 1985):
Read-outs that look alike come from different tables or passages of the source.

Assay: Solubility of miconazole nitrate in several common solvents
Assay type: physicochemical
Description: The imidazole ethers in general and the miconazoles in particular have very low solubilities in most solvents suitable for use in topical pharmaceutical compositions such as in the treatment of fungal skin infections. The solubility of miconazole nitrate, for example, in several common solvents has been determined to be as follows: […]

With Clc1ccc(COC(Cn2ccnc2)c2ccc(Cl)cc2Cl)c(Cl)c1.O=[N+]([O-])O (stereo not drawn) [miconazole nitrate, 1-[2,4-dichloro-β-(2,4-dichlorobenzyloxy)-phenethyl] imidazole nitrate] the solubility (Solvent: 40% PG/water, read-out: solubility) was 1300 µg/mL, the solubility (Solvent: HCl 0.1 N, read-out: solubility) was 500 µg/mL and the solubility (Solvent: NaOH) was “Insoluble”. For the same compound, the solubility (Solvent: Water, read-out: solubility) was 300 µg/mL, the solubility (organic solvent or mixture, Solvent: 2-Propanol, read-out: solubility) was 1300 µg/mL and the solubility (organic solvent or mixture, Solvent: Acetone, read-out: solubility) was 3400 µg/mL. It also gave a solubility (organic solvent or mixture, Solvent: Benzene, read-out: solubility) of 500 µg/mL, a solubility (organic solvent or mixture, Solvent: Chloroform, read-out: solubility) of 3100 µg/mL and a solubility (organic solvent or mixture, Solvent: Ethanol, read-out: solubility) of 7600 µg/mL. It also gave a solubility (organic solvent or mixture, Solvent: Ethyl Acetate, read-out: solubility) of 700 µg/mL, a solubility (organic solvent or mixture, Solvent: Hexane, read-out: solubility) of 300 µg/mL and a solubility (organic solvent or mixture, Solvent: Methanol, read-out: solubility) of 15000 µg/mL. For the same compound, the solubility (organic solvent or mixture, Solvent: Methyl Isobutylketone, read-out: solubility) was 400 µg/mL, the solubility (organic solvent or mixture, Solvent: PEG 300, read-out: solubility) was 1300 µg/mL and the solubility (organic solvent or mixture, Solvent: Propylene Glycol, read-out: solubility) was 1500 µg/mL. The solubility (organic solvent or mixture, Solvent: Tetrahydrofuran, read-out: solubility) was 2000 µg/mL.
